# PMC5722316, “Synthesis of novel purpurealidin analogs and evaluation of their effect on the cancer-relevant potassium channel KV10.1” (PLoS ONE, 2017)
# What was measured:
# [1] = target: T1, hKV10.1a (Homo sapiens, UniProt O95259); test: Two-electrode voltage-clamp recordings of KV10.1 currents in Xenopus laevis oocytes; type: cell-based; conditions: for KV10.1 inhibitory activity in words (structure-activity discussion): based on inhibition at 40 μM (Fig 5)
# T1 construct: expressed in transfected cells; host or cells: Xenopus laevis oocytes injected with cRNA transcribed from the hKV10.1a-pSGEM plasmid
# T1 sequence (O95259 1-962 isoform O95259-2): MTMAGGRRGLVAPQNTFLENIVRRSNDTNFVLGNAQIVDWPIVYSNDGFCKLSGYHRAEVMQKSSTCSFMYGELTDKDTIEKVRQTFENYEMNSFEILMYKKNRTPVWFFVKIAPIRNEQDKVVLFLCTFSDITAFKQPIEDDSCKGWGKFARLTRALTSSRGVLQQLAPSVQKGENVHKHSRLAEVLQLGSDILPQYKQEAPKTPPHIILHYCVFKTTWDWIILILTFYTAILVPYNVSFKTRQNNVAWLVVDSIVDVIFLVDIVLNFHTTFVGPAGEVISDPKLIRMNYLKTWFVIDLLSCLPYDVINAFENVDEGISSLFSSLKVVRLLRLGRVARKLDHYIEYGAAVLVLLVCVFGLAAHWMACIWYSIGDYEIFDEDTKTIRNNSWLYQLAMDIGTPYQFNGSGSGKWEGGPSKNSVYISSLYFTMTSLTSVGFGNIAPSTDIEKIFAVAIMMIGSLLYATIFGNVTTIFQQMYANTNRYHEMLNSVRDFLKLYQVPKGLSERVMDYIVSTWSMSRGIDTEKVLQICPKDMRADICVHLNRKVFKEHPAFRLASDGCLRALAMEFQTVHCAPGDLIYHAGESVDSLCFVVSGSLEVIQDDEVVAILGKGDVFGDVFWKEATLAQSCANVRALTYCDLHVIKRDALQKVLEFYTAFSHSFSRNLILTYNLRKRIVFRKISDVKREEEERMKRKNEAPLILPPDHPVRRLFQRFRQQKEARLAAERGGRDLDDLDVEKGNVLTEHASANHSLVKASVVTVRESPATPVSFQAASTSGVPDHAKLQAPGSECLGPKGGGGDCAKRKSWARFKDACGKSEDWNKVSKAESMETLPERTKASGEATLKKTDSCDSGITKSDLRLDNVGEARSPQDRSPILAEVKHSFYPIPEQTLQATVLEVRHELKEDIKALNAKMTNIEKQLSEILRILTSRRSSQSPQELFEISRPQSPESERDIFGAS
# From the text: For the expression of hKV10.1a (GeneBank accession number: NM_002238.3) in Xenopus oocytes, the hKV10.1a-pSGEM plasmid was linearized with SfiI (ThermoFisher Scientific, Waltham, Massachusetts, USA) and transcribed using the T7 mMESSAGE-mMACHINE transcription kit (Ambion®, Carlsbad, California, USA).
# Stage V-VI Xenopus laevis (African clawed frog) oocytes were isolated by partial ovariectomy. Mature female animals were purchased from Nasco (Fort Atkinson, Wisconsin, USA) and were housed in the Aquatic Facility (KU Leuven) in compliance with the regulations of the European Union (EU) concerning the welfare of laboratory animals as declared in Directive 2010/63/EU. The use of Xenopus laevis was approved by the Animal Ethics Committee of the KU Leuven (Project nr. P038/2017). Prior to harvesting the oocytes, the animals were anesthetized by a 15-min submersion in 0.1% tricaine methanesulfonate (pH 7.0). Isolated oocytes were defolliculated with 1.5 mg/mL collagenase.
# Defolliculated oocytes were injected with 4 nL of cRNA at a concentration of 1 ng/nL using a micro-injector (Drummond Scientific®, Broomall, Pennsylvania, USA). The oocytes were incubated in a solution containing (in mM): NaCl, 96; KCl, 2; CaCl2, 1.8; MgCl2, 2 and HEPES, 5 (pH 7.4), supplemented with 50 mg/L gentamycin sulfate.
# Two-electrode voltage-clamp recordings were performed at room temperature (18–22°C) using a Geneclamp 500 amplifier (Molecular Devices, USA) controlled by a pClamp data acquisition system (Axon Instruments®, Union City, California, USA). Whole cell currents from oocytes were recorded 1–4 days after injection. Bath solution composition was (in mM): NaCl, 96; KCl, 2; CaCl2, 1.8; MgCl2, 2 and HEPES, 5 (pH 7.5). Voltage and current electrodes were filled with a 3 M solution of KCl in H2O. Resistances of both electrodes were kept between 0.5 and 1.5 MΩ. The elicited KV10.1 currents were filtered at 1 kHz and sampled at 2 kHz using a four-pole low-pass Bessel filter. Leak subtraction was performed using a -P/4 protocol. KV10.1 currents were evoked by 2-s depolarizing pulses to 0 mV from a holding potential of -90 mV unless otherwise indicated.
# All electrophysiological data are presented as means ± S.E.M of n ≥ 3 independent experiments unless otherwise indicated. All data was analyzed using pClamp Clampfit 10.4 (Molecular Devices®, Downingtown, Pennsylvania, USA) and OriginPro 8 (Originlab®, Northampton, Massachusetts, USA) or GraphPad Prism 5 software (GraphPad Software, Inc., San Diego, California, USA).
# [2] = 40 μM, extracellular perfusion, average ± SEM, read-out: KV10.1 current inhibition
"inhibition at 40 µM [1, 2] [%]",melting point [°C],Structure (SMILES),further results
27 ± 4,,CN(C)CCCOc1c(Br)cc(CCNC(=O)c2ccccc2Br)cc1Br [Compound 12],
44 ± 4,,COc1ccc(C(=O)NCCc2cc(Br)c(OCCCN(C)C)c(Br)c2)cc1OC [Compound 31],
65 ± 1,83 to 89,COc1ccc(C(=O)NCCc2cc(Br)c(OCCCN(C)C)c(Br)c2)cc1F [Compound 27],
0,123 to 124,CC(C)CCCOc1c(Br)cc(CCNC(=O)c2cc(Br)cc(Br)c2)cc1Br [Compound 32],KV10.1 inhibitory activity in words (structure-activity discussion) [1]: total loss of the activity
39 ± 7,86 to 97,CNCCCOc1c(Br)cc(CCNC(=O)c2cc(Cl)c(OC)c(Cl)c2)cc1Br [Compound 45],
80 ± 2,,COc1ccc(C(=O)NCCc2cc(Br)c(OCCCN(C)C)c(Br)c2)cc1C [Compound 30],
32 ± 4,70 to 72,CN(C)CCCOc1c(Br)cc(CCNC(=O)c2ccccc2F)cc1Br [Compound 19],
4 ± 4,,CN(C)CCCOc1ccc(CCNC(=O)c2cc(Cl)cc(Cl)c2)cc1 [Compound 35],KV10.1 inhibitory activity in words (structure-activity discussion) [1]: abolished the activity
35 ± 2,,CN(C)CCCOc1c(Br)cc(CCNC(=O)c2cc(F)cc(F)c2)cc1Br [Compound 18],
22 ± 3,,CN(C)CCCOc1c(Br)cc(CCNC(=O)c2ccc(Br)cc2)cc1Br [Compound 14],
58 ± 1,,CNCCCOc1c(Br)cc(CCNC(=O)c2ccc(OC)c(Cl)c2)cc1Br [Compound 44],
,83 to 85,COc1c(Br)cc(C(=O)NCCc2cc(Br)c(CCCN(C)C)c(Br)c2)cc1Br [Compound 26],
80 ± 4,,COc1ccc(C(=O)NCCc2cc(Br)c(OCCCN(C)C)c(Br)c2)cc1Br [Compound 25],
,106 to 109,COc1ccc(C(=O)NCCc2cc(Br)c(CCCN(C)C)c(Br)c2)cc1 [Compound 21],
14 ± 5,87 to 92,CNCCCOc1c(Br)cc(CCNC(=O)c2cc(F)c(OC)c(F)c2)cc1Br [Compound 46],
0,107.5 to 109,CC(C)CCCOc1c(Br)cc(CCNC(=O)c2cc(Cl)cc(Cl)c2)cc1Br [Compound 33],KV10.1 inhibitory activity in words (structure-activity discussion) [1]: total loss of the activity
79 ± 2,,COc1ccc(C(=O)NCCc2cc(Br)c(OCCCN(C)C)c(Br)c2)cc1I [Compound 29],
,83 to 84.5,CN(C)CCCc1c(Br)cc(CCNC(=O)c2cc(Cl)cc(Cl)c2)cc1Br [Compound 16],
,93 to 96,COc1c(F)cc(C(=O)NCCc2cc(Br)c(CCCN(C)C)c(Br)c2)cc1F [Compound 28],
50 ± 3,,CN(C)CCCOc1c(Br)cc(CCNC(=O)c2cncc(Br)c2)cc1Br [Compound 15],
9 ± 5,89 to 97,CNCCCOc1c(Br)cc(CCNC(=O)c2ccc(OC)cc2)cc1Br [Compound 43],
,73 to 75,CCOc1c(Cl)cc(C(=O)NCCc2cc(Br)c(CCCN(C)C)c(Br)c2)cc1Cl [Compound 24],
,,O=C(NCCc1ccc(O)cc1)c1cc(Cl)cc(Cl)c1 [Compound 34],"KV10.1 current inhibition ([1]; 40 μM, extracellular perfusion, average ± SEM): 0 ± 0%"
,91 to 95,COc1c(Cl)cc(C(=O)NCCc2cc(Br)c(CCCN(C)C)c(Br)c2)cc1Cl [Compound 23],
,,"COCC(=O)O[C@]1(CCN(C)CCCc2nc3ccccc3[nH]2)CCc2cc(F)ccc2[C@@H]1C(C)C [mibefradil, reference compound]","inhibition at 10 µM ([1]; 10 μM, 2-s depolarizing pulses to 0 mV from -90 mV, read-out: KV10.1 current inhibition): 50 ± 5%"
